# Test results published in ChEMBL document CHEMBL1201862, “PubChem BioAssay data set” (2004).
# Active and inactive are the calls of the source.
# Legend:
# [1] = molecular target: Acyl-homoserine lactone acylase PvdQ (Pseudomonas aeruginosa (strain LESB58), UniProt Q9I194); test: P. aeruginosa PvdQ acylase inhibitors, dose response, biochemical, fluorescence, plate reader and imaging, cherry-picks (AID 493231)
# J774.A1 = test: Confirmation of image-based Screening Assay for Inhibitors of Phagocytosis. [Related pubchem assays (depositor defined):AID1029, AID1643]; type: functional, cell-based; details: Mus musculus
# [2] = molecular target: Scavenger receptor class B member 1 (Mus musculus, UniProt Q61009); test: inhibitors of SR-BI mediated HDL lipid uptake, dose response, ldlA[mSR-BI] cells, fluorescence, cherry pick (AID 493194); type: functional, cell-based;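 further: cellular uptake of fluorescent DiI-labeled HDL measured as cell fluorescence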
# Chain of Scavenger receptor class B member 1 (Q61009 whole entry): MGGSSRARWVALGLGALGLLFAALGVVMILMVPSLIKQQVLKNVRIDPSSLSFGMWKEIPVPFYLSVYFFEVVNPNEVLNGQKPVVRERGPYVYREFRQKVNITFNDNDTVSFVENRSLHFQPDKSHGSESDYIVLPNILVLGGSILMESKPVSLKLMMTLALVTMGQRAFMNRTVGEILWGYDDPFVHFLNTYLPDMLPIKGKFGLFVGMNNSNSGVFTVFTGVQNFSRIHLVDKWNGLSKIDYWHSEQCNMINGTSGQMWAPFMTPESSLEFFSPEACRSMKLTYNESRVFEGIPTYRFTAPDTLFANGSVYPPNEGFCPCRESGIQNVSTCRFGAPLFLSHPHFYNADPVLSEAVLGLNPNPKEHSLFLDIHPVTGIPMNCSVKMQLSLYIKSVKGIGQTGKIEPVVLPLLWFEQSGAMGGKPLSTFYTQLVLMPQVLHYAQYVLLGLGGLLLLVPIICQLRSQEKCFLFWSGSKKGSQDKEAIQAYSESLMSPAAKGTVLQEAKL
# [3] = molecular target: Metabotropic glutamate receptor 4 (Rattus norvegicus, UniProt P31423); test: Modulation of the Metabotropic Glutamate Receptor mGluR4: Rat PAM Potency. [Related pubchem assays (depositor defined):AID2437, AID2807]; type: functional
# Chain of Metabotropic glutamate receptor 4 (P31423 whole entry): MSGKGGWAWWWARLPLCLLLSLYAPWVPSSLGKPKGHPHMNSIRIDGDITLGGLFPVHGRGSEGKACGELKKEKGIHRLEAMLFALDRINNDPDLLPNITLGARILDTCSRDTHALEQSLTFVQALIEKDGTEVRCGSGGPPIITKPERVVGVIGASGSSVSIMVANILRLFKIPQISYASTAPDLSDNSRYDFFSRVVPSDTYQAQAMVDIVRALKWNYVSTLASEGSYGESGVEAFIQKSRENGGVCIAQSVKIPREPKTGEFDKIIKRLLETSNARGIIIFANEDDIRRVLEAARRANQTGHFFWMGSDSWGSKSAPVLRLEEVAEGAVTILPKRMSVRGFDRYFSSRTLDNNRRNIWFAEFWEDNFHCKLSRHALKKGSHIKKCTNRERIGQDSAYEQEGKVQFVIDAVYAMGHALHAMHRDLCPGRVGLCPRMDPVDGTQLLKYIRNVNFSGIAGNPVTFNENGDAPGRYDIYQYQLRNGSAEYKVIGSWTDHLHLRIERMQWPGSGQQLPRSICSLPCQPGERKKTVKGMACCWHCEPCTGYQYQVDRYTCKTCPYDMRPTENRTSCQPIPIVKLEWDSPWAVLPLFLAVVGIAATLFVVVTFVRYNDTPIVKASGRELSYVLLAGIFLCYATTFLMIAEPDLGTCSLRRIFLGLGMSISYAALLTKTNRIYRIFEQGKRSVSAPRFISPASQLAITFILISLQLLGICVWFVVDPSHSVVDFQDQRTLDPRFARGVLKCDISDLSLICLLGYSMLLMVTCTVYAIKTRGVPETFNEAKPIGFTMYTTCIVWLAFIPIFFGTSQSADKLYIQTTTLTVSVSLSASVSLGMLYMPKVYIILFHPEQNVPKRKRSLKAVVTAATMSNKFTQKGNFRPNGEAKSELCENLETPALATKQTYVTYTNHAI
# [4] = molecular target: Polyadenylate-binding protein 1 (Homo sapiens, UniProt P11940); test: PABP poly(A) RNA binding inhibitors, primary screen, biochemical, fluorescence polarization, uHTS (AID 2014)
# Chain of Polyadenylate-binding protein 1 (P11940 whole entry): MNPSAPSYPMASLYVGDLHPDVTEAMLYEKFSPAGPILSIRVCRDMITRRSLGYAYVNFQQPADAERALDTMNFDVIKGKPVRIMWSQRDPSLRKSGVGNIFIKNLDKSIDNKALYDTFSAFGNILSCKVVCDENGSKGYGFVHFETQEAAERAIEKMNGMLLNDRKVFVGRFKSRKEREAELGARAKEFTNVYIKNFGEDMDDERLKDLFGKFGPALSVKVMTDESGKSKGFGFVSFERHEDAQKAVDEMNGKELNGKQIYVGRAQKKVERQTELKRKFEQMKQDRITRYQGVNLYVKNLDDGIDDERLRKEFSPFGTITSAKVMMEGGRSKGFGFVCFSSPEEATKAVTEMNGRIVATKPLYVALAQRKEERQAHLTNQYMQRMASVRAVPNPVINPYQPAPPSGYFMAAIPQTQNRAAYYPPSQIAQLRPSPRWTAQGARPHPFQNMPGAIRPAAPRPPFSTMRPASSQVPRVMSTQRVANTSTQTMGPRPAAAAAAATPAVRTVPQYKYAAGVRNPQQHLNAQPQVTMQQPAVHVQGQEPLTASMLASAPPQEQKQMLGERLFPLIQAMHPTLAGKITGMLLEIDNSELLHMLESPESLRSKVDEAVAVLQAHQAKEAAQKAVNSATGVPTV
# [5] = molecular target: Eukaryotic translation initiation factor 4H (Homo sapiens, UniProt Q15056); test: human eIF4H binding inhibitors, primary screen, translation initiation inhibitor project, biochemical, uHTS, fluorescence polarization (AID 2012)
# [6] = molecular target: T1, Neuropeptide Y receptor type 2 (Homo sapiens, UniProt P49146); test: Fluorescence-based counterscreen for agonists of NPY-Y1: cell-based high-throughput dose response assay for agonists of NPY-Y2.; type: functional
# T1 sequence (P49146 whole entry): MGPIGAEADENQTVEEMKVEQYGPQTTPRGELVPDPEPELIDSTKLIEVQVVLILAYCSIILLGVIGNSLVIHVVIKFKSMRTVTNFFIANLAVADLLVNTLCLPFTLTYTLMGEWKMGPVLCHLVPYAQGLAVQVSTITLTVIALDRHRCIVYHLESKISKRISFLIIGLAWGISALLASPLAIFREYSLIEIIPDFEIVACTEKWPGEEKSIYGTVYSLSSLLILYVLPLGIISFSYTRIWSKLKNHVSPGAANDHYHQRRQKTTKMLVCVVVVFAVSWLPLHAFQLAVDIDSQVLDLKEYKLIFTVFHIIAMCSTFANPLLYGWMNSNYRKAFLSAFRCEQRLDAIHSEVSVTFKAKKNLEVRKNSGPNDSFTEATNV
# [7] = molecular target: T2, Neuropeptide Y receptor type 1 (Homo sapiens, UniProt P25929); test: Fluorescence-based dose response cell-based high-throughput screening assay for agonists of NPY-Y1. [Related pubchem assays: 1697 (Screening assay (NPY-Y1 agonists).), 1359 (Screening assay (NPY-Y2 potentiators or agonists).), 1304 (Screening assay (NPY-Y1 potentiators or agonists).), 1704 (Screening assay (CNGC inhibitors).), 1791 (Summary AID.)]; type: functional
# T2 sequence (P25929 whole entry): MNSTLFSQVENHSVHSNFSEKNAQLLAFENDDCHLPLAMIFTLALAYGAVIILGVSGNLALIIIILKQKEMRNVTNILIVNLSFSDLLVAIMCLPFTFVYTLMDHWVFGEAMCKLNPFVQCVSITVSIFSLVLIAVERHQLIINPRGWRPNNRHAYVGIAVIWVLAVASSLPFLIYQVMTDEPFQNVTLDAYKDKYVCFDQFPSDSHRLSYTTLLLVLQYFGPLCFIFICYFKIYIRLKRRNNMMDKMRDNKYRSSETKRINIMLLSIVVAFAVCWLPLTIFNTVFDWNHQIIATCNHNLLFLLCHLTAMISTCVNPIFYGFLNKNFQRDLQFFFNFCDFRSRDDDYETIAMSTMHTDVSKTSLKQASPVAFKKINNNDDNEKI
# HEK293 = test: Fluorescence-based counterscreen for potentiators or agonists of NPY-Y1: cell-based high-throughput dose response assay for inhibitors of cyclic nucleotide gated ion channel (CNGC) activity. In this assay, the parental HEK293 cell line transfected with a cyclic-nucleotide gated ion channel (CNGC)-based cAMP sensor is used to measure inhibition of isoproterenol-induced CNGC …; type: functional; details: Homo sapiens
# Aspartyl aminopeptidase = Aspartyl aminopeptidase (Plasmodium falciparum 3D7, UniProt Q8I2J3)
# Chain of Aspartyl aminopeptidase (Q8I2J3 whole entry): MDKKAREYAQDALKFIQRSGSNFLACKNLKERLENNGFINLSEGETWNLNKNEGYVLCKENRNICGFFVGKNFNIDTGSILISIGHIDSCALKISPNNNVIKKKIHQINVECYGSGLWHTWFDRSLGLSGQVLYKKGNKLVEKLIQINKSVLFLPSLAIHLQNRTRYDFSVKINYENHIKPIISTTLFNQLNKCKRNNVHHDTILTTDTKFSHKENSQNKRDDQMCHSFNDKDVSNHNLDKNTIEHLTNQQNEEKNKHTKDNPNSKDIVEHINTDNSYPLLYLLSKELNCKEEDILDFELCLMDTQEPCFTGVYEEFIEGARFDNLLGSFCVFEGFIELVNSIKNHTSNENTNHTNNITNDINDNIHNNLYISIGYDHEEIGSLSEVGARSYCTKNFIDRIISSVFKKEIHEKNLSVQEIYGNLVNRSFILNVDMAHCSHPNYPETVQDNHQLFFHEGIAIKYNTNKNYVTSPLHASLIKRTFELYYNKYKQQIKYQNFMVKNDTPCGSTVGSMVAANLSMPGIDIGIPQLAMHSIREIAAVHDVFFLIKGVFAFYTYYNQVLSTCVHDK
# [8] = molecular target: T3, Rac GTPase-activating protein 1 (Homo sapiens, UniProt Q9H0H5); test: MgcRacGAP GTPase-activating activity inhibitors, confirmation, biochemical, ADP Hunter fluorescence, primary and confirmatory (AID 624330); type: functional
# T3 sequence (Q9H0H5 whole entry): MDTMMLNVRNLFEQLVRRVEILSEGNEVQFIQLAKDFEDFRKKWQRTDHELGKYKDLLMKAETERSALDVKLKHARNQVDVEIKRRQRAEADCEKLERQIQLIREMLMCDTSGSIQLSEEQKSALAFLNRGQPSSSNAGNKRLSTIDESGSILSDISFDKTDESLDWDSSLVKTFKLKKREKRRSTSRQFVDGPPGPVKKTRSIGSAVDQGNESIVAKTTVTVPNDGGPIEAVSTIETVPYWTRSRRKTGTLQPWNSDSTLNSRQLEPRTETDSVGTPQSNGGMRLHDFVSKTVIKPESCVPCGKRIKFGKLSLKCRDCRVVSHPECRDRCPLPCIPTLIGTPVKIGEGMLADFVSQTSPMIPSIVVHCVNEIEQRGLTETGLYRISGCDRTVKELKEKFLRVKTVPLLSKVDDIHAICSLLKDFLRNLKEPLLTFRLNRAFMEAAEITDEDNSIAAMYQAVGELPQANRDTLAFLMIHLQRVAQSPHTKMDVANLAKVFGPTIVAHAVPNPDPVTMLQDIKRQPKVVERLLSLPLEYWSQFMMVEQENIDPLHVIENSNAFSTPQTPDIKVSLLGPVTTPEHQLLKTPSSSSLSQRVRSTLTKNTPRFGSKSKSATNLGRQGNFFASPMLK
# Procathepsin L = Procathepsin L (Homo sapiens, UniProt P07711)
# Chain of Procathepsin L (P07711 whole entry): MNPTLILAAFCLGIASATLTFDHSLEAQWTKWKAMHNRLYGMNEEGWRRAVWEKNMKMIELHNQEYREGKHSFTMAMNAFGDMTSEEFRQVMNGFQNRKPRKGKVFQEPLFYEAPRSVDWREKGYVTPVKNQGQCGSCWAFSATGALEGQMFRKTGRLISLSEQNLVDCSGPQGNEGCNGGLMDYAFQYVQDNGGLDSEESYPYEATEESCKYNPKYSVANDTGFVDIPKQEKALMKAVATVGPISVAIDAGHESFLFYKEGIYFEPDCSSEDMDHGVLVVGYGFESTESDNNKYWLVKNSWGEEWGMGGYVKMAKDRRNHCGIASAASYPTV
# Chain of Acyl-homoserine lactone acylase PvdQ (Q9I194 24-193 limits assumed): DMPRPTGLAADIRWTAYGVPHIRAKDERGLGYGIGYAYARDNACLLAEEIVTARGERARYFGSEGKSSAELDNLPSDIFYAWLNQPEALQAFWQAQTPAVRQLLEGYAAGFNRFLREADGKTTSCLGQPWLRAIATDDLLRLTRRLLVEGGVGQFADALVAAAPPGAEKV
# Chain of Acyl-homoserine lactone acylase PvdQ (Q9I194 217-762 limits assumed): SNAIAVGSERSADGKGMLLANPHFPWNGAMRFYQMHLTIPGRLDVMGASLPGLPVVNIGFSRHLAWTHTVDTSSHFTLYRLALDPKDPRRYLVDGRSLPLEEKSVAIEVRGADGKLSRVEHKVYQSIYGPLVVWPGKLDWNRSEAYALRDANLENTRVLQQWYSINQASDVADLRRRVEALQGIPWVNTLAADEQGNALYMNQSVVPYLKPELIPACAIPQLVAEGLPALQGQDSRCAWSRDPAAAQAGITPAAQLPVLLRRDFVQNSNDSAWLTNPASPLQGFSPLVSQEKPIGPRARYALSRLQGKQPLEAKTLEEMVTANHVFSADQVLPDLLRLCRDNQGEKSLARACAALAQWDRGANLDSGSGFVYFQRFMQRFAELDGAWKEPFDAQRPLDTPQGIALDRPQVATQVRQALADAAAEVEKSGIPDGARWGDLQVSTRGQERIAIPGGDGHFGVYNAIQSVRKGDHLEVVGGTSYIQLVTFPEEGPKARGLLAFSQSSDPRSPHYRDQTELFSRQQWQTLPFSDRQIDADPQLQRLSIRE
smiles,measurement,setting,value
N#Cc1cc([N+](=O)[O-])ccc1N1CCCC1,AC50,[1],3.79 µM (active)
Cn1cc(C=Nn2cnc3scc(-c4ccc(Cl)cc4)c3c2=O)c2ccccc21,IC50,J774.A1,< 0.05 µM (inactive)
COc1cc(OC)cc(C(=O)Nc2cccc(NC(=O)c3cc(OC)cc(OC)c3)n2)c1,AC50,[2],45.9 µM (active)
O=C(Nc1ccc(NC(=O)c2ccccc2Cl)c(Cl)c1)c1ccccn1,EC50,[3],0.75 µM (active)
Cc1ccccc1/C=C/c1cccc[n+]1C,IC50,[4],7.43 µM (active)
same,IC50,[5],> 100 µM (inactive)
OC(CNC1Cc2ccccc2C1)COc1ccc(Cl)cc1 (configuration not stated),EC50,[6],> 35.4 µM (not active)
same,EC50,[7],11.6 µM (not active)
same,IC50,HEK293,> 3.94 µM (active)
Cc1cc(O)nc2c(N=Nc3ccc(O)cc3)c(N)nn12,IC50,Aspartyl aminopeptidase,1.51 µM (active)
same,IC50,[8],12.1 µM (active)
same,IC50,Procathepsin L,> 59.6 µM (not active)
